Results: PubChem BioAssay AID256 (DTP/NCI, 2004)
Values joined by “and” are separate entries in the source; they are usually repeats but may differ in a detail not shown here. Identical values can stand only once. Inconclusive results and toxic doses are left out. How the source made its calls: active means survival T/C of 150% or more; inactive means T/C below 125% in these data.

System: CD2F1 mice, L1210 leukemia ip, survival T/C
Test: NCI In Vivo Anticancer Drug Screen. Data for tumor model L1210 Leukemia (intraperitoneal) in CD2F1 (CDF1) mice
Details: higher = longer survival
Method in brief: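 Implant tumor; dose compound or vehicle; measure endpoint in both groups; report treated divided by control.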

[1] = endpoint: mean survival time, dose: 100.0 mg/kg/injection, schedule: Q01DX001 (ip), vehicle: saline
[2] = endpoint: mean survival time, dose: 200.0 mg/kg/injection, schedule: Q01DX001 (ip), vehicle: saline
[3] = endpoint: mean survival time, dose: 400.0 mg/kg/injection, schedule: Q01DX001 (ip), vehicle: saline
[4] = endpoint: mean survival time, dose: 25.0 mg/kg/injection, schedule: Q01DX009 (ip), vehicle: saline with Tween-80
[5] = endpoint: mean survival time, dose: 50.0 mg/kg/injection, schedule: Q01DX009 (ip), vehicle: saline with Tween-80
[6] = endpoint: mean survival time, dose: 100.0 mg/kg/injection, schedule: Q01DX009 (ip), vehicle: saline with Tween-80
[7] = endpoint: mean survival time, dose: 200.0 mg/kg/injection, schedule: Q01DX009 (ip), vehicle: saline with Tween-80
[8] = endpoint: mean survival time, dose: 100.0 mg/kg/injection, schedule: Q04DX003 (ip), vehicle: saline with Tween-80
[9] = endpoint: mean survival time, dose: 200.0 mg/kg/injection, schedule: Q04DX003 (ip), vehicle: saline with Tween-80
[10] = endpoint: mean survival time, dose: 400.0 mg/kg/injection, schedule: Q04DX003 (ip), vehicle: saline with Tween-80
[11] = endpoint: mean survival time, dose: 25.0 mg/kg/injection, schedule: Q04DX003 (ip), vehicle: saline with Tween-80
[12] = endpoint: mean survival time, dose: 50.0 mg/kg/injection, schedule: Q04DX003 (ip), vehicle: saline with Tween-80
[13] = endpoint: mean survival time, dose: 12.5 mg/kg/injection, schedule: Q01DX009 (ip), vehicle: saline with Tween-80
[14] = endpoint: mean survival time, dose: 400.0 mg/kg/injection, schedule: Q01DX009 (ip), vehicle: saline with Tween-80
[15] = endpoint: mean survival time, dose: 100.0 mg/kg/injection, schedule: Q01DX001 (ip), vehicle: saline with Tween-80
[16] = endpoint: mean survival time, dose: 200.0 mg/kg/injection, schedule: Q01DX001 (ip), vehicle: saline with Tween-80

Measured: T/C

O=C(Nc1ccccc1Cl)c1ccccc1CC(O)(c1ccccc1)c1ccccc1
inactive: endpoint: mean survival time, dose: 100.0 mg/kg/injection, schedule: Q01DX001 (ip), vehicle: saline sonified 102 % of control | endpoint: mean survival time, dose: 200.0 mg/kg/injection, schedule: Q01DX001 (ip), vehicle: saline sonified 109 % of control | endpoint: mean survival time, dose: 400.0 mg/kg/injection, schedule: Q01DX001 (ip), vehicle: saline sonified 86 % of control

C=CCNC(C)=O
inactive: [1] 103 % of control | [2] 97 % of control | [3] 103 % of control

N=C(N)SCc1cccc2c(=O)cc(-c3ccccc3)oc12
inactive: [4] 95 % of control | [5] 96 % of control | [6] 101 % of control | [7] 104 % of control | endpoint: median survival time, dose: 25.0 mg/kg/injection, schedule: Q01DX009 (ip), vehicle: saline 113 % of control | endpoint: median survival time, dose: 50.0 mg/kg/injection, schedule: Q01DX009 (ip), vehicle: saline 113 % of control | endpoint: median survival time, dose: 100.0 mg/kg/injection, schedule: Q01DX009 (ip), vehicle: saline 114 % of control | endpoint: median survival time, dose: 200.0 mg/kg/injection, schedule: Q01DX009 (ip), vehicle: saline 113 % of control | endpoint: median survival time, dose: 400.0 mg/kg/injection, schedule: Q01DX009 (ip), vehicle: saline 97 % of control

CCC1CN2C(=N1)c1ccccc1-c1cc(Cl)ccc12 (stereo not drawn)
inactive: endpoint: mean survival time, dose: 10.0 mg/kg/injection, schedule: Q04DX003 (ip), vehicle: Klucel (hydroxypropylcellulose) (HPC) 98 % of control | endpoint: mean survival time, dose: 20.0 mg/kg/injection, schedule: Q04DX003 (ip), vehicle: Klucel (hydroxypropylcellulose) (HPC) 103 % of control

O=C(c1ccc([N+](=O)[O-])cc1)C(Br)C(Br)c1ccncc1 (stereo not drawn)
inactive: [8] 95 % of control | [9] 97 % of control | [10] 103 % of control

C=CCn1c2ccccc2c2c(C)c3cnccc3c(C)c21
inactive: [11] 96 % of control and 102 % of control | [12] 100 % of control and 102 % of control | [8] 103 % of control and 104 % of control | [9] 113 % of control and 116 % of control

CN(C)CCP(c1ccccc1)c1ccccc1
inactive: endpoint: mean survival time, dose: 75.0 mg/kg/injection, schedule: Q01DX001 (ip), vehicle: other 102 % of control

ClC(Cl)(Cl)C1=NCc2nnn(Cc3ccccc3)c2N1
inactive: [13] 100 % of control | [4] 92 % of control | [5] 105 % of control | [6] 100 % of control | [7] 107 % of control | [14] 94 % of control

Cc1ccc(S(=O)(=O)c2ccccc2)cc1
inactive: endpoint: mean survival time, dose: 100.0 mg/kg/injection, schedule: Q01DX009 (ip), vehicle: saline 88 % of control | endpoint: mean survival time, dose: 200.0 mg/kg/injection, schedule: Q01DX009 (ip), vehicle: saline 87 % of control | endpoint: mean survival time, dose: 400.0 mg/kg/injection, schedule: Q01DX009 (ip), vehicle: saline 92 % of control

O=C(/C=C/C(=N\Nc1ccccc1)c1ccccc1)c1ccccc1
inactive: [15] 96 % of control | [16] 94 % of control | endpoint: mean survival time, dose: 400.0 mg/kg/injection, schedule: Q01DX001 (ip), vehicle: saline with Tween-80 97 % of control

CCNCc1cc(Nc2cc(C)nc(/N=C(\N)Nc3ccc(Cl)c(Cl)c3)n2)ccc1OC
inactive: endpoint: mean survival time, dose: 25.0 mg/kg/injection, schedule: Q01DX009 (ip), vehicle: Klucel (hydroxypropylcellulose) (HPC) 100 % of control

CC(C)(C)CC(C)(C)c1ccc(OCCOS(=O)(=O)c2cccc([N+](=O)[O-])c2)cc1
inactive: [5] 96 % of control | [6] 89 % of control | [7] 94 % of control

Cc1cccc(NC(=O)c2cccc(Cl)c2)c1C
inactive: [6] 91 % of control | [8] 96 % of control | [7] 96 % of control | [9] 96 % of control | [14] 91 % of control | [10] 96 % of control

O=C(O)c1[nH]nc(-c2ccc([N+](=O)[O-])cc2)c1[N+](=O)[O-]
inactive: endpoint: mean survival time, dose: 4.7 mg/kg/injection, schedule: Q01DX005 (ip), vehicle: water 86 % of control | endpoint: mean survival time, dose: 9.4 mg/kg/injection, schedule: Q01DX005 (ip), vehicle: water 90 % of control | endpoint: mean survival time, dose: 18.8 mg/kg/injection, schedule: Q01DX005 (ip), vehicle: water 90 % of control | endpoint: mean survival time, dose: 37.5 mg/kg/injection, schedule: Q01DX005 (ip), vehicle: water 104 % of control | endpoint: mean survival time, dose: 50.0 mg/kg/injection, schedule: Q01DX005 (ip), vehicle: water 97 % of control | endpoint: mean survival time, dose: 75.0 mg/kg/injection, schedule: Q01DX005 (ip), vehicle: water 93 % of control | endpoint: mean survival time, dose: 100.0 mg/kg/injection, schedule: Q01DX005 (ip), vehicle: water 93 % of control | endpoint: mean survival time, dose: 200.0 mg/kg/injection, schedule: Q01DX005 (ip), vehicle: water 89 % of control | endpoint: mean survival time, dose: 400.0 mg/kg/injection, schedule: Q01DX005 (ip), vehicle: water 101 % of control

CC1(O)CC2C=CC1CC2 (stereo not drawn)
inactive: [8] 101 % of control | [9] 104 % of control | [10] 95 % of control

N/N=C(\NN)c1ccccc1
inactive: [8] 92 % of control | [9] 87 % of control | [10] 92 % of control

COc1cc2ccc3c(c2cc1OC)C(=O)CNC3C (stereo not drawn)
inactive: endpoint: mean survival time, dose: 3.13 mg/kg/injection, schedule: Q01DX009 (ip), vehicle: saline 105 % of control | endpoint: mean survival time, dose: 6.25 mg/kg/injection, schedule: Q01DX009 (ip), vehicle: saline 98 % of control | endpoint: mean survival time, dose: 12.5 mg/kg/injection, schedule: Q01DX009 (ip), vehicle: saline 104 % of control

C1CSC(CC2SCCCS2)SC1
inactive: endpoint: mean survival time, dose: 50.0 mg/kg/injection, schedule: Q01DX001 (ip), vehicle: saline with Tween-80 97 % of control | [15] 94 % of control | [16] 96 % of control

Cc1cc2oc(=O)cc(O)c2c(=O)o1
inactive: [6] 96 % of control | [8] 94 % of control | [7] 96 % of control | [9] 97 % of control | [10] 98 % of control

NC(N)=NC(N)=Nc1ccc(Cl)cc1
inactive: [6] 104 % of control | [7] 106 % of control

O=C1C=CC(=O)N1CO (tested in a mixture with another compound)
inactive: [6] 98 % of control | [7] 98 % of control | [14] 93 % of control

CC(=O)N(C(C)=O)c1ncc2ccccc2c1-c1ccc(N)cc1
inactive: [11] 92 % of control | [12] 89 % of control | [8] 94 % of control

COc1ccccc1NC(=O)Oc1ccc(C(C)(C)C)cc1
inactive: endpoint: mean survival time, dose: 100.0 mg/kg/injection, schedule: Q04DX002 (ip), vehicle: saline with Tween-80 96 % of control | endpoint: mean survival time, dose: 200.0 mg/kg/injection, schedule: Q04DX002 (ip), vehicle: saline with Tween-80 88 % of control | endpoint: mean survival time, dose: 400.0 mg/kg/injection, schedule: Q04DX002 (ip), vehicle: saline with Tween-80 100 % of control

O=S(=O)(C(Br)CBr)C(Br)CBr (stereo not drawn)
inactive: [8] 95 % of control

CCCCCCCCCCCCCCC/C([O-])=N/[N+](C)(C)CC(C)O (stereo not drawn)
inactive: endpoint: mean survival time, dose: 25.0 mg/kg/injection, schedule: Q01DX001 (ip), vehicle: saline 95 % of control and 100 % of control | endpoint: mean survival time, dose: 50.0 mg/kg/injection, schedule: Q01DX001 (ip), vehicle: saline 100 % of control | [5] 89 % of control | [1] 89 % of control and 97 % of control | [6] 91 % of control | [2] 97 % of control | [3] 100 % of control

NC(=O)c1c(N)sc2c1CCCC2
inactive: endpoint: mean survival time, dose: 6.25 mg/kg/injection, schedule: Q01DX009 (ip), vehicle: saline with Tween-80 96 % of control | endpoint: mean survival time, dose: 6.25 mg/kg/injection, schedule: Q04DX003 (ip), vehicle: saline with Tween-80 107 % of control | [13] 93 % of control | endpoint: mean survival time, dose: 12.5 mg/kg/injection, schedule: Q04DX003 (ip), vehicle: saline with Tween-80 102 % of control | [4] 95 % of control | [11] 100 % of control
